Measured values as given in PubChem BioAssay AID2305 (GlaxoSmithKline (GSK), 2010).

Tested on: P. falciparum 3D7 growth, pLDH absorbance
Experiment: blood-stage malaria parasite growth potency – strain 3D7, dose response (AID 2305)

SMILES | IC50 [nM]
O=S(=O)(NCCN1CCCC1)c1ccc(-c2ccc(CN3Cc4ccccc4C3)cc2)s1 | 930
O=C(NC1CCN(CCN2CCC(c3c[nH]c4ccccc34)CC2)CC1)c1ccc(-c2ccc(C(F)(F)F)cc2)cc1 | 200
Cc1ccc(NS(=O)(=O)c2ccc(-c3ccccc3)cc2)c(Cn2cnc(N3CCCNCC3)cc2=O)c1 | 860
COCCNCc1cccc(C#Cc2cc3ncnc(Nc4ccc(OCc5cccc(F)c5)c(Cl)c4)c3s2)n1 | 740
CCN(CC)CCN(Cc1ccc(-c2ccc(C(F)(F)F)s2)cc1)C(=O)Cn1c(CCc2cccc(F)c2F)nc(=O)c2ccccc21 | 990
CN(C)c1cccc2c1nc(-c1ccco1)n2CCNCc1ccccc1 | 810
COc1ccc(C2C(C(=O)Nc3ccc(C)c(F)c3)c3cc(OC)c(OC)cc3C(=O)N2C)cc1 (stereo unspecified) | 960
CCCNCc1ccc(-c2ccc(CN(CCOC)C(=O)CC3CCCC3=O)cc2)nc1 (stereo unspecified) | 1240
CCCc1c(C(=O)OCC)c2cc(O)ccc2n1-c1ccc(OC)cc1 | 140
COc1ccc(NC(=O)Nc2ccc(-c3ccc(-c4nc5ccccc5[nH]4)cc3)cc2)cc1 | 510
CCCCOc1ccccc1C(=O)NCc1csc(-c2ccccc2)n1 | 560
C[C@H](Cc1ccc(C(=O)OCCOC(=O)c2ccc(C[C@@H](C)NC[C@H](O)c3cccc(C(F)(F)F)c3)cc2)cc1)NC[C@H](O)c1cccc(C(F)(F)F)c1 | 820
COc1cccc(C2C(C(=O)Nc3ccccc3)=C(C)N=c3s/c(=C\c4ccc(O)cc4)c(=O)n32)c1 (stereo unspecified) | 580
COC(=O)C1=C(C)NC2=C(C(=O)CC(c3ccc(OC)c(OC)c3)C2)C1c1cccc(O)c1 (stereo unspecified) | 730
O=C(Nc1ccc(S(=O)(=O)N2CCCCCC2)cc1)c1cc(-c2ccccc2O)n[nH]1 | 720
Cc1cc(N[C@@H](Cc2ccccc2)C(=O)NC2CCCC2)nc(NCCc2ccc(F)cc2)n1 | 800
CC(C)CN1C(=O)C(c2ccc(F)c(F)c2)=C(O)C1c1ccccc1 (stereo unspecified) | 190
Cn1cncc1CCN(Cc1ccc(-c2ccc(C(F)(F)F)cc2)cc1)C(=O)Cn1c(CCc2cccc(F)c2F)cc(=O)c2cccnc21 | 850
Cc1ccc(NCc2cccc(F)c2)cc1S(=O)(=O)N[C@@H]1CCN(C#N)C1 | 790
COc1ccc2nccc(N(C)CC3(O)CCC(NCc4ccc5c(n4)NC(=O)CS5)CC3)c2n1 (stereo unspecified) | 700
Nc1nc(N)c2c(Oc3cc(Cl)c(Cl)c(Cl)c3)cccc2n1 | 800
CCNc1cc(C(=O)N[C@@H](Cc2ccccc2)[C@H](O)CNC(C)(C)CCCC(C)C)cc(N2CCCC2=O)c1 | 830
COc1cc2ncnc(Nc3ccc(OCc4ccccc4Br)c(OC)c3)c2cc1OC | 430
Oc1cccc(Nc2nc(NCC3CCCO3)c3ccccc3n2)c1 (stereo unspecified) | 810

SMILES | IC50 [nM]
CC(C)C[C@@H](/C=N/N1CCOC1=O)NC(=O)[C@H](CC(C)C)NC(=O)c1ccc(OCCN2CCOCC2)cc1 | 220
Cc1cc(NC(=O)Nc2ccc(Oc3ccccc3)cc2)c2ccccc2n1 | 840
NC(=O)N1CCN(Cc2ccc(Br)cc2)CC1 | 620
Fc1ccc2nc(-c3cccc(-c4cccc(CNCc5cnn(-c6ccccc6)n5)c4)c3)[nH]c2c1 | 970
Cc1ccc(CNC(=O)[C@H](CC(C)C)Nc2cc(C)nc(NCc3ccccc3C)n2)cc1 | 950
COc1cc(C(=O)Nc2cccc(-c3cn4cccc(C)c4n3)c2)cc(OC)c1OC | 700
CCCc1cc(C(=O)N[C@@H](Cc2ccccc2)[C@H](O)CNC(C)C)c(F)c(N2CCCC2=O)c1 | 940
COC(=O)CCCCOc1cc(Cc2cnc(N)nc2N)cc(OC)c1OC | 170
CC(C)COc1ccc(Cl)cc1Cc1ccc(-c2nc3c(cnc4ccccc43)[nH]2)o1 | 1260
COc1ccc2nccc(NN=Cc3ccccc3F)c2c1 | 620
CNC(=O)c1cnc(Nc2ccc(OCC(O)CN(C)C)cc2)nc1Nc1cccc(Br)c1 (stereo unspecified) | 120
CCCCC([C@@H](Cc1ccc2ccccc2c1)C(=O)N[C@H](C(=O)NC)C(C)(C)C)N(O)C=O (stereo partly specified) | 140
NCC1CCCN1Cc1cccc(-c2ccc(-c3nc4ccc(C(F)(F)F)cc4[nH]3)s2)c1 (stereo unspecified) | 750
CS(=O)(=O)c1ccc(CCNCc2ccc(-c3ccc(CN(C(=O)C4CC(=O)c5ccccc54)C4Cc5ccccc5C4)cc3)nc2)cc1 (stereo unspecified) | 860
CCCNC[C@@H](O)[C@H](Cc1ccccc1)NC(=O)c1cc2c3c(c1)c(CC)cn3CCS(=O)(=O)N2C | 100
Cc1ccnc(NC(c2ccc(Cl)c([N+](=O)[O-])c2)c2ccc3cccnc3c2O)c1 (stereo unspecified) | 930
O=C(Nc1ccccc1Cl)c1cc2ccccc2cc1O | 1010
CC(Nc1nncc(-c2cccc(F)c2)n1)c1ccc(F)cc1 (stereo unspecified) | 790
Cc1ccc(OCC2CCN(c3ncc(C(=O)NC4CC4)cc3Cl)CC2)cc1 | 1090
COc1ccc(OC)c2c1CCN(CCN1CCC(C(=O)Nc3ccc(C(=O)Nc4ccc(Cl)cc4)cc3)CC1)C2 | 580
O=[N+]([O-])c1cccc(C=NNc2ccnc3cc(F)ccc23)c1 | 910
Nc1nccc2ccc(-c3cccc(OCc4ccccc4)c3)cc12 | 290
Cc1cccc(-n2c(=O)c3c4c(sc3n3c(SCCC(C)C)nnc23)CCCC4)c1 | 760
COc1ccc2c(NN=Cc3ccccc3)ccnc2c1 | 130

SMILES | IC50 [nM]
Cn1nc(-c2cccc(CNCCc3cccs3)c2)c2cnc(NC3CCCC3)nc21 | 1890
COc1cccc(C(O)CNc2ccnc(Nc3ccc(Cl)cc3)n2)c1 (stereo unspecified) | 610
Cc1cc(C(=O)Nc2ccc3c(c2)CCN3C2CCN(Cc3ccc4nsnc4c3)C2)no1 (stereo unspecified) | 640
COC(=O)c1cccc(CNCc2cccc(-c3ccc(-c4nc5ccc(C(F)(F)F)cc5[nH]4)cc3)c2)c1 | 260
N#Cc1ccc(-c2ccc(C(=O)NCCCCN3CCC(c4cc(Br)c5c(c4O)CCCC5)CC3)cc2)cc1 | 150
COC(=O)c1cc(OC2CCOC2=O)cc2c1OC(C)(C)O2 (stereo unspecified) | 810
FC(F)(F)c1ccc2nc(-c3ccc(-c4cccc(CNCC5CCCO5)c4)s3)[nH]c2c1 (stereo unspecified) | 370
CN1CCC[C@H]1COc1ccc(CN2CC[C@H](NC(=O)c3ccc(Cl)c(Cl)c3)C2)cc1Br | 980
CC(=O)Nc1ncc(C(=O)Nc2cccc(-c3ccc(-c4nc5ccccc5[nH]4)cc3)c2)s1 | 670
Cc1ccc(N2CCN(CCCCNC(=O)c3ccc(NC(=O)c4ccc(Cl)cc4)cc3)CC2)c(C)c1 | 760
CC(C)(C)c1ccc(CNCC(C)(C)c2nc(-c3ccc(Cl)c(O)c3)c(-c3ccnc(N)n3)[nH]2)cc1 | 700
O=C(c1ccc(-c2cccc(-c3nc4ccc(F)cc4[nH]3)c2)cc1)N1CCCCC1CN1CCC(O)C1 (stereo unspecified) | 1400
C#CCCC(=O)Nc1cccc(-c2cccc(-c3nc4ccc(C(F)(F)F)cc4[nH]3)c2)c1 | 810
Cc1cc(C(=O)Nc2ccc3c(c2)CCN3C2CCN(Cc3cccc(F)c3F)C2)no1 (stereo unspecified) | 580
COc1ccc2nccc([C@@H](O)CN3CCC(NCc4cn5cc(F)ccc5n4)CC3)c2c1 | 780
c1cc(CNCCc2ccncc2)cc(-c2ccc(-c3nc4ccccc4[nH]3)cc2)c1 | 150
COc1ccc2nccc([C@@H](O)CN3CCC(NCCOc4cc(F)cc(F)c4)CC3)c2c1 | 160
FC(F)(F)c1cccc(Nc2nc3nonc3nc2NC2C3CC4CC(C3)CC2C4)c1 (stereo unspecified) | 660
CCc1cc(N2CCN(c3ccccc3F)CC2)nc(SCc2ccc(C(=O)NC3CC3)o2)n1 | 890
CCNc1cc(C)nc(Nc2ccc(NC(=O)c3ccccc3Br)cc2)n1 | 740
NCc1cccc(-c2ccccc2CNC2CCN(Cc3ccccc3)CC2)c1 | 770
O=C(CNC(=O)c1ccc(O)cc1)Nc1ccc(-c2cccc(-c3nc4ccc(C(F)(F)F)cc4[nH]3)c2)cc1 | 860
O=C(CSc1nn(-c2ccccc2)c(=S)s1)c1c[nH]c2ccccc12 | 1090
Nc1cnc(C#Cc2cc3ncnc(N(CCN4CCOCC4)c4ccc(OCc5cccc(F)c5)c(Cl)c4)c3s2)cn1 | 1050

SMILES | IC50 [nM]
C[C@H](NC(=O)[C@H](CCCCNC(=O)OC(C)(C)C)NC(=O)OC(C)(C)c1ccc(-c2ccccc2)cc1)C(=O)OCc1ccccc1 | 180
Cc1cc(C)c(NC(=O)N[C@H]2CCN(CCCCCNC(=O)/C=C/c3ccc(Cl)c(Cl)c3)C2)c(C)c1 | 950
O=C(Nc1ccc(Cl)cc1)N1CCN(C2CCCCC2)CC1 | 990
CC(=O)Nc1ccc(C(=O)Nc2cccc(-c3ccc(-c4nc5ccc(C(F)(F)F)cc5[nH]4)s3)c2)cn1 | 130
CC(=O)Nc1ccc(CN(Cc2cccc(OC(C)(C)C)c2)Cc2ccc3c(c2)OCCO3)cc1 | 140
NCC(=O)Nc1cccc(Nc2nccc(-c3c(-c4cccc(NC(=O)c5ccccc5)c4)nn4ccccc34)n2)c1 | 430
COc1ccc2nccc([C@@H](O)CN3CCC(NCc4cc5sccc5nc4C(F)(F)F)CC3)c2c1 | 910
COc1ccc(CCCCN2C(=O)C(c3ccccc3)(c3ccccc3)N=C2N)cc1 | 860
OC(c1n[nH]c(=S)n1-c1ccccc1)C(O)c1n[nH]c(=S)n1-c1ccccc1 (stereo unspecified) | 740
N=C(N)c1ccc(C=CC(=O)NCC(O)CNC(=O)C=Cc2ccc(C(=N)N)cc2)cc1 (stereo unspecified) | 30
Cc1cccc2[nH]c(-c3cccc(-c4cccc(NC(=O)c5ccc(=O)[nH]n5)c4)c3)nc12 | 790
CCCCCNc1ccnc2cc(Cl)ccc12 | 510
CCCc1cc(NC2CCN(C)CC2)nc(Nc2cccc(OC)c2)n1 | 770
CCNc1cc(C(=O)N[C@@H](Cc2ccccc2)[C@H](O)CNC2(CC)CCCCC2)cc(N2CCCCS2(=O)=O)c1 | 270
Cc1ccccc1N1CCN(c2ncc(C(=O)NC3CC3)cc2Cl)CC1 | 630
CN(Cc1cccc(F)c1)C1CCN(c2cc(NC(=O)c3cccc(F)c3)ccn2)CC1 | 1160
CSc1ccc(C[C@@H](C)NC[C@H](O)c2cccc(Cl)c2)cc1 | 940
CC(=O)N1N=C(c2ccc(F)cc2)Sc2c1nc(-c1ccccc1)n2C(C)=O | 650
CC[C@H]1CN2CCc3cc(OC)c(OC)cc3[C@@H]2C[C@@H]1CC1=NCCc2c1[nH]c1ccc(OCc3ccccc3)cc21 | 770
CCCCCCCCCc1c(C)[nH]c2ccccc2c1=O | 160
COc1cccc(C(=O)[C@H]2C[C@@H]2CN2CC=C(c3c[nH]c4cccc(Br)c34)CC2)c1 | 750
COc1cc(Br)ccc1N1CCN(CCCCNC(=O)c2ccc(NC(=O)c3ccc(Cl)cc3)cc2)CC1 | 760
CC1(C)N=C(N)N=C(N)N1CCc1ccccc1 | 50
O=C(Nc1ccc(Cl)c(Cl)c1)Nc1ccc2nccc(N3CCNCC3)c2c1 | 260
